Experimental data: patent publication US20100120775A1, “Farnesoid X Receptor Agonists” (SMITHKLINE BEECHAM CORPORATION, priority 2006, published 2010)

How the values were obtained:
[1] = molecular target: T1, Human FXRα Ligand Binding Domain (Homo sapiens, UniProt Q96RI1); experiment: FXR Cofactor Binding Assay (FXR LBD / SRC-1 peptide, time resolved fluorescence); conditions: FXRα LBD with biotinylated SRC-1 (LCD2, 676-700) peptide; for EC50: read-out: Activity (pEC50) (converted)
T1 construct: polyhistidine (pRSET-A vector) (N); made in house; host or cells: E. coli BL21 (DE3), pRSET-A vector
T1 sequence (Q96RI1 237-472 isoform Q96RI1-2): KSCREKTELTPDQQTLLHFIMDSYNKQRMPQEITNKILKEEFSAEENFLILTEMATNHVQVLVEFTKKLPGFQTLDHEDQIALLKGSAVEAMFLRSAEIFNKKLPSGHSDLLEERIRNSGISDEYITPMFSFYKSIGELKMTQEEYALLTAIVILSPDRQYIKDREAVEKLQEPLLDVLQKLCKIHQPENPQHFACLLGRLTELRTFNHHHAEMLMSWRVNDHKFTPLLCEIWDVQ
Excerpt: Determination of a ligand mediated cofactor peptide interaction to quantify ligand binding to the nuclear receptor Farnesoid X Receptor (FXR). The method measures the ability of putative ligands to modulate the interaction between the purified bacterial expressed FXRα ligand binding domain (LBD) and a synthetic biotinylated peptide based on residues 676-700 of steroid receptor coactivator-1 (SRC-1) (LXXLL-containing domain-2 where L is the amino acid leucine and X indicates any other amino acid (LCD2), 676-700). The sequence of the SRC-1 peptide used is as published in Iannone, M. A., et al., 2001 Cytometry 44:326-337 where the N-terminus was biotinylated (B) and the C-terminus was amidated. Detection of the associated complex was measured by time resolved fluorescence (TRF). The purified LBD of FXR was labeled with biotin then mixed with stoichiometric amounts of allophycocyanin (APC) labeled streptavidin (Molecular Probes). The biotinylated peptide was then mixed with a ½ stoichiometric amount of europium labeled streptavidin (Wallac Inc). Each was then blocked with a 5 fold excess of biotin and allowed to equilibrate for 15 min. Equimolar amounts of receptor and peptide were mixed together and were allowed to equilibrate for at least 30 min prior to the addition to either a variable or constant concentrations of the sample for which the affinity is to be determined. After equilibration, the time-resolved fluorescent signal was quantitated using a fluorescent plate reader. The affinity of the test compound was estimated from a plot of fluorescence versus concentration of test compound added.
A basal level of FXR: peptide formation is observed in the absence of added ligand. Ligands that promote the complex formation induce a concentration-dependent increase in time-resolved fluorescent signal. Compounds which bind equally well to both monomeric FXR and to the FXR: peptide complex would be expected to give no change in signal, whereas ligands which bind preferentially to the monomeric receptor would be expected to induce a concentration-dependent decrease in the observed signal.
Human FXRα Ligand Binding Domain (FXRα LBD) was expressed in E. coli strain BL21 (DE3) as an amino-terminal polyhistidine tagged fusion protein. Expression was under the control of an isopropyl-13-D-thiogalactopyranoside (IPTG) inducible T7 promoter. DNA encoding this recombinant protein is subcloned into the pRSET-A expression vector (Invitrogen). The coding sequence of Human FXRα LBD was derived from Genbank accession number U 68233 (amino acids 237 to 472).
Routinely, 30-40 g cell paste (equivalent to 2-3 liters of the fermentation batch) was resuspended in 200-250 mL Tris buffered saline (TBS), pH 7.2 (25 mM Tris-hydroxymethylamino methane (Tris), 150 mM sodium chloride). Cells were lysed by passing 3 times through a French Press and cell debris was removed by centrifugation (30 minutes, 20,000×gravity, 4° C.). The cleared supernatant was filtered through course pre-filters, and TBS, pH 7.2, 500 mM imidazole was added to obtain a final imidazole concentration of 50 mM. This lysate was loaded onto a column (6×8 cm) packed with Sepharose [Ni^|| charged]Chelation resin (Pharmacia) and pre-equilibrated with TBS pH 7.2/50 mM imidazole. After washing to baseline absorbance with equilibration buffer, the column was washed with one column volume of TBS pH 7.2 containing 90 mM imidazole. FXRα LBD was eluted directly with 365 mM imidazole. Column fractions were pooled and dialyzed against TBS, pH 7.2, containing 0.5 mM EDTA and 5 mM DTT. The dialyzed protein sample was concentrated using Centri-prep 10 K (Amicon) and subjected to size exclusion, using a column (3×90 cm) packed with Sepharose S-75 resin (Pharmacia) pre-equilibrated with TBS, pH 7.2, containing 0.5 mM ethylene diamine tetraacetic acid (EDTA) and 5 mM dithiothreitol (DTT). […]

[2] = tested on: high-fat diet fed obese mice; experiment: Effects of FXR agonists on diet induced obese mice; format: in vivo, C57BL mice; conditions: 10, 30, 100 mg/kg twice a day orally; for body fat mass: QMR; for NEFA / cholesterol / glycerol / insulin / triglyceride: serum
Experimental: Methods: Male 20 to 25 g C57BL mice (Charles River, Indianapolis, Ind.) were housed at 72° F. and 50% relative humidity with a 12 h light and dark cycle and fed with standard rodent chow (Purina 5001, Harlan Teklad, Indianapolis, Ind.) or a high-fat diet (TD93075, Harlan Teklad, Indianapolis, Ind.) for eight weeks. After three weeks, mice on high-fat diet were randomized to vehicle or treatment groups based on fasting glucose and body weight. Starting from the fifth week, mice were given either vehicle or the compound in Example 1 (10, 30, and 100 mg/kg) or the compound in Example 5 (10, 30, 100 mg/kg) twice a day orally. Mice on the standard rodent chow were also given vehicle as a control. Body composition was measured using the quantitative magnetic resonance (QMR) method before and at the end of compound treatment. […] Serum chemistry levels were measured using the Instrumentation Laboratory Ilab600TM clinical chemistry analyzer (Instrumentation Laboratory, Boston, Mass.).

SMILES	EC50 [1] [µM]	further results
CC(C)c1onc(-c2c(Cl)cccc2Cl)c1COc1ccc(-c2ccc3cc(C(=O)O)ncc3c2)cc1 [Example 5, 7-[4-({[3-(2,6-Dichlorophenyl)-5-(1-methylethyl)-4-isoxazolyl]methyl}oxy)phenyl]-3-isoquinolinecarboxylic acid]	0.102 to 1	serum glucose [2]: decreased; body fat mass [2]: decreased; NEFA [2]: decreased; cholesterol [2]: decreased; glycerol [2]: decreased; insulin [2]: decreased; triglyceride [2]: decreased
CC(C)c1onc(-c2c(Cl)cccc2Cl)c1COc1ccc(-c2ccc3nc(C(=O)O)ccc3c2)cc1 [Example 1, 6-[4-({[3-(2,6-Dichlorophenyl)-5-(1-methylethyl)-4-isoxazolyl]methyl}oxy)phenyl]-2-quinolinecarboxylic Acid]	–	serum glucose [2]: decreased; body fat mass [2]: decreased; NEFA [2]: decreased; cholesterol [2]: decreased; glycerol [2]: decreased; insulin [2]: decreased; triglyceride [2]: decreased
Cc1cc(OCc2c(-c3c(Cl)cccc3Cl)noc2C(C)C)ccc1-c1ccc2nc(C(=O)O)ccc2c1 [Example 33, 6-[4-({[3-(2,6-Dichlorophenyl)-5-(1-methylethyl)-4-isoxazolyl]methyl}oxy)-2-methylphenyl]-2-quinolinecarboxylic acid]	0.102 to 1	–
O=C(O)c1cc2ccc(-c3ccc(OCc4c(-c5c(Cl)cccc5Cl)noc4C4CC4)cc3)cc2cn1 [Example 10, 7-[4-({[5-Cyclopropyl-3-(2,6-dichlorophenyl)-4-isoxazolyl]methyl}oxy)phenyl]-3-isoquinolinecarboxylic acid]	0.102 to 1	–
O=C(O)c1ccc2cc(-c3ccc(OCc4c(-c5c(Cl)cccc5Cl)noc4C4CCC4)cc3)ccc2n1 [Example 7, 6-[4-({[5-Cyclobutyl-3-(2,6-dichlorophenyl)-4-isoxazolyl]methyl}oxy)phenyl]-2-quinolinecarboxylic acid]	0.102 to 1	–
CC(C)c1onc(-c2c(Cl)cncc2Cl)c1COc1ccc(-c2ccc3nc(C(=O)O)ccc3c2)cc1 [Example 25, 6-[4-({[3-(3,5-Dichloro-4-pyridinyl)-5-(1-methylethyl)-4-isoxazolyl]methyl}oxy)phenyl]-2-quinolinecarboxylic acid]	0.102 to 1	–
O=C(O)c1ccc2cc(-c3ccc(OCc4c(C5CCCC5)noc4C4CCCC4)cc3)ccc2n1 [Example 26, 6-(4-{[(3,5-Dicyclopentyl-4-isoxazolyl)methyl]oxy}phenyl)-2-quinolinecarboxylic acid]	0.102 to 1	–
CC(C)c1onc(C[S+]([O-])c2c(Cl)cccc2Cl)c1COc1ccc(-c2ccc3nc(C(=O)O)ccc3c2)cc1 (centres unmarked) [Example 23, 6-[4-({[3-{[(2,6-Dichlorophenyl)sulfinyl]methyl}-5-(1-methylethyl)-4-isoxazolyl]methyl}oxy)phenyl]-2-quinolinecarboxylic acid]	0.102 to 1	–
CC(C)c1onc(-c2c(Cl)cccc2Cl)c1COc1ccc(-c2ccc3nc(C(=O)O)ccc3c2)cc1 [Example 1i, Sodium 6-[4-({[3-(2,6-dichlorophenyl)-5-(1-methylethyl)-4-isoxazolyl]methyl}oxy)phenyl]-2-quinolinecarboxylate]	–	Activity (pEC50) [1]: ++ (++ indicates a pEC50 6-6.99)
CC(C)c1onc(-c2c(Cl)cccc2Cl)c1COc1ccc(-c2ccc3c(C(=O)O)cc(C(=O)O)nc3c2)cc1 [Example 3, 7-[4-({[3-(2,6-Dichlorophenyl)-5-(1-methylethyl)-4-isoxazolyl]methyl}oxy)phenyl]-2,4-quinolinedicarboxylic acid]	0.102 to 1	–
CC(C)c1onc(-c2c(Cl)ccnc2Cl)c1COc1ccc(-c2ccc3nc(C(=O)O)ccc3c2)cc1 [Example 28, 6-[4-({[3-(2,4-Dichloro-3-pyridinyl)-5-(1-methylethyl)-4-isoxazolyl]methyl}oxy)phenyl]-2-quinolinecarboxylic acid]	0.102 to 1	–
Cc1cccc(C)c1OCc1noc(C(C)C)c1COc1ccc(-c2ccc3nc(C(=O)O)ccc3c2)cc1 [Example 18, 6-[4-({[3-{[(2,6-Dimethylphenyl)oxy]methyl}-5-(1-methylethyl)-4-isoxazolyl]methyl}oxy)phenyl]-2-quinolinecarboxylic acid]	0.102 to 1	–
CC(C)c1onc(-c2c(Cl)cccc2Cl)c1COc1ccc(-c2ccc3nc(C(=O)O)cnc3c2)cc1 [Example 39, 6-[4-({[3-(2,6-Dichlorophenyl)-5-(1-methylethyl)-4-isoxazolyl]methyl}oxy)phenyl]-2-quinoxalinecarboxylic acid]	0.102 to 1	–
Cc1cc2cc(-c3ccc(OCc4c(-c5c(Cl)cccc5Cl)noc4C(C)C)cc3)ccc2nc1C(=O)O [Example 31, 6-[4-({[3-(2,6-dichlorophenyl)-5-(1-methylethyl)-4-isoxazolyl]methyl}oxy)phenyl]-3-methyl-2-quinolinecarboxylic acid]	0.102 to 1	–
O=C(O)c1ccc2cc(-c3ccc(OCc4c(-c5c(Cl)cccc5Cl)noc4C4CC4)cc3)ccc2n1 [Example 11, 6-[4-({[5-Cyclopropyl-3-(2,6-dichlorophenyl)-4-isoxazolyl]methyl}oxy)phenyl]-2-quinolinecarboxylic acid]	0.102 to 1	–
CC(C)c1onc(COc2c(Cl)cccc2Cl)c1COc1ccc(-c2ccc3nc(C(=O)O)ccc3c2)cc1 [Example 20, 6-[4-({[3-{[(2,6-Dichlorophenyl)oxy]methyl}-5-(1-methylethyl)-4-isoxazolyl]methyl}oxy)phenyl]-2-quinolinecarboxylic acid]	0.102 to 1	–
CC(C)c1onc(CNc2c(Cl)cccc2Cl)c1COc1ccc(-c2ccc3nc(C(=O)O)ccc3c2)cc1 [Example 21, 6-[4-({[3-{[(2,6-Dichlorophenyl)amino]methyl}-5-(1-methylethyl)-4-isoxazolyl]methyl}oxy)phenyl]-2-quinolinecarboxylic acid]	0.102 to 1	–
CC(C)c1onc(-c2c(Cl)cccc2Cl)c1COc1ccc(-c2ccc3c(C(=O)O)nccc3c2)cc1 [Example 36, 6-[4-({[3-(2,6-Dichlorophenyl)-5-(1-methylethyl)-4-isoxazolyl]methyl}oxy)phenyl]-1-isoquinolinecarboxylic acid]	0.102 to 1	–
CC(C)c1onc(COC2CCCC2)c1COc1ccc(-c2ccc3nc(C(=O)O)ccc3c2)cc1 [Example 27, 6-[4-({[3-[(Cyclopentyloxy)methyl]-5-(1-methylethyl)-4-isoxazolyl]methyl}oxy)phenyl]-2-quinolinecarboxylic acid]	1.02 to 10	–
